Data published in patent US8895585B2, “Nicotinamide derivative or salt thereof” (FUJIFILM Corporation, priority 2010, dated 2014).

Experiments:
[1] = molecular target: T1, glutathione S-transferase (GST)-fused full-length human Syk protein (Homo sapiens, UniProt P43405); experiment: Syk enzyme assay; format: biochemical; conditions: Syk enzyme assay, Test Example 1; read-out: IC50 of Syk-inhibitory activity
T1 construct: (GST)-fused full-length human Syk protein; GST (glutathione S-transferase); purchased Carna Biosciences
Outline: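 IC50 values come from a time-resolved FRET readout (615 and 665 nm) of substrate phosphorylation, measured after an EDTA stop and 1 h antibody binding. The kinase reaction ran 40 min at room temperature with 27 μM ATP and 0.4 μM biotin-peptide, following a 15 min compound preincubation with baculovirus-made GST-full-length human Syk.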

THP-1 cells = experiment: TNFα generation assay; format: cell-based, human; conditions: Homo sapiens, THP-1, THP-1 cells; Table 22; read-out: IC50 in TNFα generation assay
Outline: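 THP-1 cells differentiated to macrophage-like cells with 10 ng/ml IFN-γ for 2 days, preincubated with compound 30 min at room temperature, then cultured 7 h on plates coated with human IgG (10 μg/ml). Secreted TNFα measured by ELISA or AlphaLISA.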

Row | Structure (SMILES) | IC50 [1] [nM] | IC50 (THP-1 cells) [nM]
1 | CC[C@@H](Nc1nc(Nc2ccnc(-c3cccc(OC)c3)c2)c(C(N)=O)cc1F)[C@H](C)N [Example 006-330, 6-(((2S,3R)-2-aminopentan-3-yl)amino)-5-fluoro-2-((2-(3-methoxyphenyl)pyridin-4-yl)amino)nicotinamide] | < 10 | < 65
2 | CC(C)C[C@H](CN)Nc1nc(Nc2ccc3cnn(C)c3c2)c(C(N)=O)cc1F [Example 006-226, (R)-6-((1-amino-4-methylpentan-2-yl)amino)-5-fluoro-2-((1-methyl-1H-indazol-6-yl)amino)nicotinamide] | < 10 | 65 to 130
3 | NC(=O)c1cc(F)c(NCC(N)c2ccccc2)nc1Nc1ccc2ncccc2c1 (stereo not drawn) [Example 014-005] | < 10 | < 65
4 | CCc1nn(C2CC2)c2ccc(Nc3nc(N[C@@H]4CCCC[C@@H]4N)c(F)cc3C(N)=O)cc12 [Example 006-478, 6-(((1R,2S)-2-aminocyclohexyl)amino)-2-((1-cyclopropyl-3-ethyl-1H-indazol-5-yl)amino)-5-fluoronicotinamide] | < 10 | 65 to 130
5 | C[C@H](N)[C@@H](C)Nc1nc(Nc2ccc3scnc3c2)c(C(N)=O)cc1F (racemic) [Example 006-188, 6-(((2R,3S)-3-aminobutan-2-yl)amino)-2-(benzo[d]thiazol-5-ylamino)-5-fluoronicotinamide 6-(((2S,3R)-3-aminobutan-2-yl)amino)-2-(benzo[d]thiazol-5-ylamino)-5-fluoronicotinamide] | < 10 | 65 to 130
6 | CCn1nc(C)c2cc(Nc3nc(N[C@H](CC4CC4)[C@H](C)N)c(F)cc3C(N)=O)ccc21 [Example 006-443, 6-(((2R,3S)-3-amino-1-cyclopropylbutan-2-yl)amino)-2-((1-ethyl-3-methyl-1H-indazol-5-yl)amino)-5-fluoronicotinamide] | < 10 | 65 to 130
7 | Cn1ncc2cc(Nc3nc(N[C@@H]4CCCC[C@@H]4N)c(F)cc3C(N)=O)ccc21 [Example 37-5, 6-((1R,2S)-2-aminocyclohexylamino)-5-fluoro-2-((1-methyl-1H-indazol-5-yl)amino)-nicotinamide] | < 10 | 65 to 130
8 | CCn1ncc2ccc(Nc3nc(NC4CCCCC4N)c(F)cc3C(N)=O)cc21 (stereo not drawn) [Example 002-185] | < 10 | < 65
9 | COCCOc1ncc(Nc2nc(N[C@@H]3CCCC[C@@H]3N)c(F)cc2C(N)=O)cc1-n1cccn1 [Example 006-575, 6-(((1R,2S)-2-aminocyclohexyl)amino)-2-((6-(2-methoxyethoxy)-5-(1H-pyrazol-1-yl)pyridin-3-yl)amino)-5-fluoronicotinamide] | 10 to 50 | 130 to 200
10 | CCC[C@@H](Nc1nc(Nc2cncc(-c3cccc(OC)c3F)c2)c(C(N)=O)cc1F)[C@H](C)N [Example 006-286, 6-(((2S,3R)-2-aminohexan-3-yl)amino)-5-fluoro-2-((5-(2-fluoro-3-methoxyphenyl)pyridin-3-yl)amino)nicotinamide] | < 10 | < 65
11 | CC[C@@H](Nc1nc(Nc2ccc3nc(OCCOC)ccc3c2)c(C(N)=O)cc1F)[C@H](C)N [Example 006-271, 6-(((2S,3R)-2-aminopentan-3-yl)amino)-5-fluoro-2-((2-(2-methoxyethoxy)quinolin-6-yl)amino)nicotinamide] | < 10 | < 65
12 | CCC[C@@H](Nc1nc(Nc2ccc3c(cnn3CCOC)c2)c(C(N)=O)cc1F)[C@@H](N)CC [Example 006-400, 6-(((3S,4R)-3-aminoheptan-4-yl)amino)-5-fluoro-2-((1-(2-methoxyethyl)-1H-indazol-5-yl)amino)nicotinamide] | < 10 | < 65
13 | CCC[C@@H](Nc1nc(Nc2cncc(-c3cccc(OC)c3)c2)c(C(N)=O)cc1F)[C@H](C)N [Example 006-284, 6-(((2S,3R)-2-aminohexan-3-yl)amino)-5-fluoro-2-((5-(3-methoxyphenyl)pyridin-3-yl)amino)nicotinamide] | < 10 | 130 to 200
14 | NC(=O)c1cc(F)c(N[C@@H]2CCCC[C@@H]2N)nc1Nc1cncc(-c2ncccn2)c1 (relative stereo) [Example 004-214, 6-(cis-2-aminocyclohexylamino)-5-fluoro-2-((5-(pyrimidin-2-yl)pyridin-3-yl)amino)nicotinamide] | 10 to 50 | 130 to 200
15 | CC(C)C[C@H](CN)Nc1nc(Nc2ccc3c(cnn3C)c2)c(C(N)=O)cc1F [Example 006-142, (R)-6-((1-amino-4-methylpentan-2-yl)amino)-5-fluoro-2-((1-methyl-1H-indazol-5-yl)amino)nicotinamide] | < 10 | < 65
16 | C[C@H](N)CNc1nc(Nc2cnc3ccccc3c2)c(C(N)=O)cc1F [Example 006-092, (S)-6-((2-aminopropyl)amino)-5-fluoro-2-((quinolin-3-yl)amino)nicotinamide] | < 10 | < 65
17 | C[C@H](N)[C@@H](CC1CC1)Nc1nc(Nc2ccc3c(c2)c(C2CC2)nn3C)c(C(N)=O)cc1F [Example 006-545, 6-(((2R,3S)-3-amino-1-cyclopropylbutan-2-yl)amino)-2-((3-cyclopropyl-1-methyl-1H-indazol-5-yl)amino)-5-fluoronicotinamide] | < 10 | 65 to 130
18 | Cc1nn(C)c2ccc(Nc3nc(N[C@H](CC(C)C)[C@H](C)N)c(F)cc3C(N)=O)cc12 [Example 006-520, 6-(((2S,3R)-2-amino-5-methylhexan-3-yl)amino)-2-((1,3-dimethyl-1H-indazol-5-yl)amino)-5-fluoronicotinamide] | < 10 | < 65
19 | C[C@H](N)CNc1nc(Nc2cccc(-n3nccn3)c2)c(C(N)=O)cc1F [Example 006-097, (S)-2-((3-(2H-1,2,3-triazol-2-yl)phenyl)amino)-6-((2-aminopropyl)amino)-5-fluoronicotinamide] | < 10 | < 65
20 | CCCC[C@@H](Nc1nc(Nc2ccc3ncccc3c2)c(C(N)=O)cc1F)[C@H](C)N [Example 006-208, 6-(((2S,3R)-2-aminoheptan-3-yl)amino)-5-fluoro-2-((quinolin-6-yl)amino)nicotinamide] | < 10 | 65 to 130
21 | COc1nn(C)c2ccc(Nc3nc(N[C@@H]4CCCC[C@@H]4N)c(F)cc3C(N)=O)cc12 [Example 006-585, 6-(((1R,2S)-2-aminocyclohexyl)amino)-5-fluoro-2-((3-methoxy-1-methyl-1H-indazol-5-yl)amino)nicotinamide] | < 10 | < 65
22 | Cc1ncc(Nc2nc(N[C@H](CC3CC3)[C@H](C)N)c(F)cc2C(N)=O)cc1-n1nccn1 [Example 006-374, 6-(((2R,3S)-3-amino-1-cyclopropylbutan-2-yl)amino)-5-fluoro-2-((6-methyl-5-(2H-1,2,3-triazol-2-yl)pyridin-3-yl)amino)nicotinamide] | 10 to 50 | 130 to 200
23 | CC(C)C[C@H](CN)Nc1nc(Nc2ccnc(-n3nccn3)c2)c(C(N)=O)cc1F [Example 006-154, (R)-2-((2-(2H-1,2,3-triazol-2-yl)pyridin-4-yl)amino)-6-((1-amino-4-methylpentan-2-yl)amino)-5-fluoronicotinamide] | < 10 | 65 to 130
24 | CC(C)C[C@H](CN)Nc1nc(Nc2cccc3c2cnn3C)c(C(N)=O)cc1F [Example 006-227, (R)-6-((1-amino-4-methylpentan-2-yl)amino)-5-fluoro-2-((1-methyl-1H-indazol-4-yl)amino)nicotinamide] | < 10 | 130 to 200
25 | CCCc1nn(C)c2ccc(Nc3nc(N[C@@H]4CCCC[C@@H]4N)c(F)cc3C(N)=O)cc12 [Example 006-456, 6-(((1R,2S)-2-aminocyclohexyl)amino)-5-fluoro-2-((1-methyl-3-propyl-1H-indazol-5-yl)amino)nicotinamide] | < 10 | 130 to 200
26 | CCc1ncc(Nc2nc(N[C@@H]3CCCC[C@@H]3N)c(F)cc2C(N)=O)cc1F [Example 006-554, 6-(((1R,2S)-2-aminocyclohexyl)amino)-2-((6-ethyl-5-fluoropyridin-3-yl)amino)-5-fluoronicotinamide] | 10 to 50 | 130 to 200
27 | NC(=O)c1cc(F)c(N[C@@H]2CCCC[C@@H]2N)nc1Nc1cnc2c(c1)OCO2 [Example 004-160] | 10 to 50 | 130 to 200
28 | NC(=O)c1cc(F)c(N[C@@H]2CCCC[C@@H]2N)nc1Nc1cncc(-c2nnco2)c1 (relative stereo) [Example 004-229, 2-((5-(1,3,4-oxadiazol-2-yl)pyridin-3-yl)amino)-6-((cis-2-aminocyclohexyl)amino)-5-fluoronicotinamide] | < 10 | 65 to 130
29 | NC(=O)c1cc(F)c(N[C@@H]2CCCC[C@@H]2N)nc1Nc1cncc(-c2cccc([N+](=O)[O-])c2)c1 (relative stereo) [Example 004-215, 6-(cis-2-aminocyclohexylamino)-5-fluoro-2-((5-(3-nitrophenyl)pyridin-3-yl)amino)nicotinamide] | < 10 | 65 to 130
30 | CCC[C@@H](Nc1nc(Nc2ccnc(-c3cc(OC)ccc3F)c2)c(C(N)=O)cc1F)[C@H](C)N [Example 006-290, 6-(((2S,3R)-2-aminohexan-3-yl)amino)-5-fluoro-2-((2-(2-fluoro-5-methoxyphenyl)pyridin-4-yl)amino)nicotinamide] | < 10 | < 65
